Key:
XBP1s mRNA = test: XBP1 splicing (qRT-PCR and RT-PCR) in Tm-treated INS-1 cells; type: cell-based, rat; settings: Tm 0.1 μg/mL, 9c 20 μM
From the text: Next, we investigated the mechanism by which 9c protects β cells against ER stress. In response to ER stress, all three branches of the UPR, IRE1α, PERK and ATF6, are activated to either restore cellular homeostasis/survival or lead to cell death, depending on the severity of ER stress. First, we asked whether 9c affects the activation of IRE1α in β cells under ER stress. Activated IRE1α cleaves X-box binding protein-1 (XBP1) mRNA to generate a spliced form (XBP1s) that is translated into a potent transcription factor which controls expression of UPR genes encoding factors involved in ER protein folding and degradation. We therefore determined the effect of 9c on IRE1α-mediated XBP1 splicing in INS-1 cells in the presence of Tm.
(§1) INS-1 cells were seeded at 4×10^5 cells/well in 6-well plates and treated with compounds for the indicated times. Total RNA was extracted using TRIzol reagent (Invitrogen, Carlsbad, Calif.) according to the manufacturer's protocol, and 2 μg of total RNA was reverse transcribed using a Superscript kit (Invitrogen). Real-time PCR was performed in 96-well format using SYBR Select Master Mix (Applied Biosystems, Foster City, Calif.) with an ABI 7500 PCR system (Applied Biosystems). The primer sequences used are shown in U.S. Ser. No. 62/542,408, Aug. 8, […].

Bip and GRP94 mRNA = test: qRT-PCR of Bip and GRP94 in Tm-treated INS-1 cells; type: cell-based, rat; settings: Tm 0.1 μg/mL, 9c 20 μM, FIG. 7A, B
Protocol: We then asked whether 9c affects the activation of ATF6 in β cells under ER stress. Activated ATF6 acts as a homodimer or as an ATF6-XBP1s heterodimer to control the up-regulation of select UPR target genes including the chaperone proteins BiP and GRP94. We evaluated the effect of 9c on the mRNA levels of chaperones Bip and GRP94 in β cells in the presence of Tm.
as §1

primary human β cells = test: TUNEL staining of primary human islet β cells treated with Tm; type: cell-based; settings: primary human islets, Tm 1 μg/mL, 9c 10 μM, 48 h; Tm alone 15%, DMSO 2.5%
From the text: We determined whether 9c suppresses the apoptosis of primary human β cells induced by Tm treatment as assessed by TUNEL, which detects fragmentation of DNA, a marker of apoptotic cell death. […] Next, we investigated whether 9c restored the Tm-induced insulin secretion defect. […] ER stress induces activation of three branches of UPR (PERK, IRE1α, and ATF6), leading to up-regulation of ATF4, XBP1s, Bip, […], CHOP and eventual activation caspase 3 and cell apoptosis, while diminishing the expression of PDX1, MAFA and insulin genes, leading to β cell dysfunction. Compound 9c protects β cell against ER stress-mediated dysfunction and death by down-regulating ATF4, XBP1s, Bip, GRP94, CHOP, and caspase 3 and up-regulating PDX1, MAFA and insulin genes.
Primary human islets were washed with PBS and fixed with 4% paraformaldehyde for 30 min. Fixed cells were then blocked in 5% normal donkey serum for 30 min. Polyclonal guinea pig anti-insulin (A0564, Dako, 1:500 dilution) was used as primary antibody. Donkey Cy3 anti-guinea pig IgG was used as the secondary antibody. TUNEL staining was performed with In Situ Cell Death Detection Kit-Fluorescein (Roche) according to the manufacturer's instructions. DAPI was used for nuclear counter-staining. Images were taken with an Olympus FV1000 confocal microscope.

INS-1 cells = test: Glucose-stimulated insulin secretion in Tm-treated INS-1 cells; type: cell-based, rat; settings: Tm 0.1 μg/mL, 24 h, 25 mM glucose, FIG. 5E
From the text: ER stress also impairs the most important function of β cells: the biosynthesis and secretion of insulin. Multiple steps of insulin synthesis and secretion are impaired under ER stress; they include insulin gene transcription, insulin mRNA stability, protein translation, and the insulin protein secretory process. First, we examined whether compound 9c could rescue Tm-suppressed mRNA levels of insulin genes. […] Second, we examined whether compound 9c affects the expression of β cell transcription factors PDX1 and MafA, which control β cell identity and the expression of insulin genes. Chronic exposure to supraphysiologic concentrations of glucose and its associated ER stress cause the down-regulation of expression of PDX1 and MafA. Consistent with this notion, Tm decreased the levels of PDX1 and MafA mRNA expression levels in INS-1 cells. […] Next, we explored whether compound 9c re-establishes Tm-impaired glucose-stimulated insulin secretion (GSIS).
INS-1 or primary human islet cells were plated in 96-well plates. […] The secreted insulin was measured with insulin ELISA kits (for mouse insulin from Millipore and for human insulin from LifeTech). Cells were lysed with RIPA buffer (50 mM Tris HCl pH 7.4, 1% NP-40, 0.25% sodium deoxycholate, 150 mM NaCl), and total cellular protein was determined with a Bradford protein assay. […]

Compound: COc1ccc(CNc2nc(N3CCCCC3CO)nc3ccccc23)cc1 (racemic) [Compound 9c, (1-(4-((4-methoxybenzyl)amino)quinazolin-2-yl)piperidin-2-yl)methanol]
- XBP1s mRNA (qRT-PCR) (XBP1s mRNA; FIG. 6A): suppressed
- XBP1s mRNA (RT-PCR, electrophoretic separation of spliced and unspliced forms) (XBP1s mRNA; FIG. 6B): inhibits the Tm-induced generation of XBP1s mRNA
- Bip and GRP94 mRNA levels (Bip and GRP94 mRNA): almost completely suppressed
- percentage of TUNEL+ insulin+ cells (primary human β cells): 3.5%
- glucose-stimulated insulin secretion (GSIS) (INS-1 cells): significantly rescued the GSIS

— patent US10815219B2, “2,4-diaminoquinazoline derivatives for inhibiting endoplasmic reticulum (ER) stress” (The Board of Regents of the University of Oklahoma, priority 2017, dated 2020)
